The source made the active and inactive calls.
Experiments:
[1] = target: Sphingosine 1-phosphate receptor 3 (Homo sapiens, UniProt Q99500); experiment: Late-stage fluorescence-based dose-response cell-based counterscreen assay to identify agonists of the Sphingosine 1-Phosphate Receptor 4 (S1P4): Sphingosine 1-Phosphate Receptor 3 (S1P3) agonist assay Set 2.; format: functional
[2] = target: Sphingosine 1-phosphate receptor 5 (Homo sapiens, UniProt Q9H228); experiment: S1P5 receptor agonists, human, late-stage follow-up, counter-screen for S1P4 agonist project, cell-based, fluorescence, set 2 (AID 504867); format: functional
[3] = target: Sphingosine 1-phosphate receptor 1 (Homo sapiens, UniProt P21453); experiment: Late-stage fluorescence-based dose-response cell-based counterscreen assay to identify agonists of the Sphingosine 1-Phosphate Receptor 4 (S1P4): Sphingosine 1-Phosphate Receptor 1 (S1P1) agonist assay Set 2.; format: functional
[4] = target: Sphingosine 1-phosphate receptor 2 (Homo sapiens, UniProt O95136); experiment: S1P2 receptor agonists, human, late-stage follow-up, counter-screen for S1P4 agonist project, cell-based, fluorescence, set 2 (AID 504873); format: functional
INS1 [5] = experiment: protection of INS-1E cells from cytokine death, dose response, ATP luminescence, dry powder (AID 488844); format: functional, cell-based; settings: Rattus norvegicus
[6] = inhibitors of cytokine-induced nitrite release, dose response, cell-based, Griess absorbance, INS-1E, dry powder, set 3 (AID 488870); format: functional; settings: Rattus norvegicus
INS1 [7] = experiment: inhibitors of cytokine-induced nitrite release, dose response, cell-based, Griess absorbance, INS-1E, dry powder, set 2 (AID 488868); format: functional; settings: Rattus norvegicus
[8] = target: T1, Orexin/Hypocretin receptor type 1 (Homo sapiens, UniProt O43613); experiment: (§1) Fluorescence-based cell-based high throughput dose response assay for antagonists of the orexin 1 receptor (OX1R; HCRTR1). [Related pubchem assays (depositor defined):AID434989, AID435008, AID463079, AID485270, AID492963, AID492964, AID492965, AID493232, AID504717, AID504718]; format: functional
Orexin receptor type 2 [9] = target: T2, Orexin receptor type 2 (Homo sapiens, UniProt O43614); experiment: Counterscreen assay for antagonists of the orexin 1 receptor (OX1R; HCRTR1): Fluorescence-based cell-based dose response assay for antagonists of the orexin 2 receptor (OX2R; HCRTR2), run by assay provider.; format: functional
Streptococcus = experiment: Group A Streptococcus viability loss, dose response, counter-screen for streptokinase expression inhibitor project, luminescence, BacTiterGlo (AID 1915); format: functional, organism-based;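 also: potency for reduction of bacterial viability or growth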
Orexin receptor type 2 [10] = target: T2, Orexin receptor type 2; experiment: Counterscreen assay for antagonists of the orexin 1 receptor (OX1R; HCRTR1): Homogeneous Time Resolved Fluorescence (HTRF)-based cell-based dose response assay for antagonists of the orexin 2 receptor (OX2R; HCRTR2), run by assay provider.; format: functional
[11] = target: T1, Orexin/Hypocretin receptor type 1; experiment: as §1, with “Homogeneous Time Resolved Fluorescence (HTRF)-based” for “Fluorescence-based”; format: functional
CHO-K1 = experiment: (§2) Counterscreen for antagonists of the orexin 1 receptor (OX1R; HCRTR1): Homogeneous time resolved fluorescence (HTRF)-based cell-based dose response assay to identify antagonists of the parental CHO-K1 cell line. [Related pubchem assays (depositor defined):AID434989, AID435008, AID463079, AID485270, AID492963, AID492964, AID492965, AID493232, AID504699, AID504701]; format: functional; settings: Cricetulus griseus
[12] = tested on: Streptococcus sp. 'group A'; experiment: growth inhibition of control SK(-) GAS strain, dose response, counter-screen for streptokinase expression inhibitor project, luminescence, kanamycin, BacTiterGlo, confirmation (AID 1900); format: functional, organism-based
[13] = as §2, with “Fluorescence-based” for “Homogeneous time resolved fluorescence (HTRF)-based”, “cell-based high throughput” for “cell-based”, “CHO” for “CHO-K1”; format: functional
[14] = target: DNA dC->dU-editing enzyme APOBEC-3G (Homo sapiens, UniProt Q9HC16); experiment: APOBEC3G deaminase inhibitors, SAR follow-up, biochemical, fluorescence, single-stranded DNA substrate (AID 602136); format: functional; settings: read-out: IC50_Mean
[15] = target: DNA dC->dU-editing enzyme APOBEC-3A (Homo sapiens, UniProt P31941); experiment: SAR analysis of small molecule inhibitors of APOBEC3A DNA Deaminase via a fluorescence-based single-stranded DNA deaminase assay.; format: functional; settings: read-out: IC50_Mean
DNA dC->dU-editing enzyme APOBEC-3A, sequence (P31941 whole entry): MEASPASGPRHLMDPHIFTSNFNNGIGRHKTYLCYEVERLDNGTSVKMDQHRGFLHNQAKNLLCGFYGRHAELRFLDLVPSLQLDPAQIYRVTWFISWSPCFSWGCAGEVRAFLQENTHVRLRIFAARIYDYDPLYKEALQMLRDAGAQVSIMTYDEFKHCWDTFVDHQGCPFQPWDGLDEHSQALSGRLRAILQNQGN

T2 sequence (O43614 whole entry): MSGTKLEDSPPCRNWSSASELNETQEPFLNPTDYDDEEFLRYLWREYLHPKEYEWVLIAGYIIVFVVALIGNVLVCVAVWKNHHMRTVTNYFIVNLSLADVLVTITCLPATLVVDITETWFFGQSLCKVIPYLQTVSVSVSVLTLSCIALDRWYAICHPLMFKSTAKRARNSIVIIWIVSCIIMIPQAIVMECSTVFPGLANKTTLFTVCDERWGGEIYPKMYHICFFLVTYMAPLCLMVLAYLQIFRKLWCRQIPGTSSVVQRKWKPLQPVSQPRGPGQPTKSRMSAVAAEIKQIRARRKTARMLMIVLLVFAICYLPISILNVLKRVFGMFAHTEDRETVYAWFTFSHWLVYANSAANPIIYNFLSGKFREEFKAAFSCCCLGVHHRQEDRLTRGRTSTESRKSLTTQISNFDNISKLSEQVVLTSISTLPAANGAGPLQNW
T1 sequence (O43613 whole entry): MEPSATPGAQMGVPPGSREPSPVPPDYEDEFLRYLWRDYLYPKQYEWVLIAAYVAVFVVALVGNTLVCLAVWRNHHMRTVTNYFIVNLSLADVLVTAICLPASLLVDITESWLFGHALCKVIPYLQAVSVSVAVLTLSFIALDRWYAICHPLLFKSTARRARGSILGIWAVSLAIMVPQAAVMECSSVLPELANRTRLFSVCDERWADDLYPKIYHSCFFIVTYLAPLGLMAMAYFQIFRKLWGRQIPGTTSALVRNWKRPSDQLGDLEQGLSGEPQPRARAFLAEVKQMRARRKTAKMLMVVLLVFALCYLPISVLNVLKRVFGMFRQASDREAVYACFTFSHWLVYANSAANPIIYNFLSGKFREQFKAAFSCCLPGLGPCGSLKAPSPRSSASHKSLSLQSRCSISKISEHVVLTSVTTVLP
Sphingosine 1-phosphate receptor 5, sequence (Q9H228 whole entry): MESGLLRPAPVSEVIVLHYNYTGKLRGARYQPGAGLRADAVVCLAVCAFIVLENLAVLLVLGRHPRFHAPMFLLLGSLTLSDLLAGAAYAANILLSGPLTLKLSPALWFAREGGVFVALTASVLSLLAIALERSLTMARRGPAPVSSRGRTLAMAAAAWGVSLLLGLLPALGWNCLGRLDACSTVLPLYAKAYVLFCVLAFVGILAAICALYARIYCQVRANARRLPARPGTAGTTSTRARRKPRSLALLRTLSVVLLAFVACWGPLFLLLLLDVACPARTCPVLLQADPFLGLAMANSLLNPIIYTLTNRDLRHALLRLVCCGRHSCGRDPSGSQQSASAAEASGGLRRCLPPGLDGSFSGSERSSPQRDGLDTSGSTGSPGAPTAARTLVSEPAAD
Sphingosine 1-phosphate receptor 3, sequence (Q99500 whole entry): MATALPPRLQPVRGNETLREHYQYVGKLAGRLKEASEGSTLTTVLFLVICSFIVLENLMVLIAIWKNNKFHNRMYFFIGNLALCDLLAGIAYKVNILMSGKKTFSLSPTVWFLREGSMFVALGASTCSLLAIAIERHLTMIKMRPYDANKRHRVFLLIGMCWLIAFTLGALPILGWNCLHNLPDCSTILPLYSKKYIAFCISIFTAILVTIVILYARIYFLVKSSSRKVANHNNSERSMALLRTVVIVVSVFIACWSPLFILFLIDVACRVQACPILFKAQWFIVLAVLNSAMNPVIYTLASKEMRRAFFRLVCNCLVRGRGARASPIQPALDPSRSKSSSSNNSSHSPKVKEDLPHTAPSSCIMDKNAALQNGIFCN
Sphingosine 1-phosphate receptor 1, sequence (P21453 whole entry): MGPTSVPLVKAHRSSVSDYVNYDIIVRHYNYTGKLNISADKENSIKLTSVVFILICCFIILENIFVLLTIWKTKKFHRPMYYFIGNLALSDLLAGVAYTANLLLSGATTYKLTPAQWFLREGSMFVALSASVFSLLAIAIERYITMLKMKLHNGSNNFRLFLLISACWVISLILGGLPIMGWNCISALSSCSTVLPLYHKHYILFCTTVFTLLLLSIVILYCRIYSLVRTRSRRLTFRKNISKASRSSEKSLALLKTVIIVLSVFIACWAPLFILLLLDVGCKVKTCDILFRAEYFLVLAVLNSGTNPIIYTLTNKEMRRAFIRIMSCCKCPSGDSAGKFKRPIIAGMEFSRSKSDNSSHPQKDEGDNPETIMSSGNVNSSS
DNA dC->dU-editing enzyme APOBEC-3G, sequence (Q9HC16 whole entry): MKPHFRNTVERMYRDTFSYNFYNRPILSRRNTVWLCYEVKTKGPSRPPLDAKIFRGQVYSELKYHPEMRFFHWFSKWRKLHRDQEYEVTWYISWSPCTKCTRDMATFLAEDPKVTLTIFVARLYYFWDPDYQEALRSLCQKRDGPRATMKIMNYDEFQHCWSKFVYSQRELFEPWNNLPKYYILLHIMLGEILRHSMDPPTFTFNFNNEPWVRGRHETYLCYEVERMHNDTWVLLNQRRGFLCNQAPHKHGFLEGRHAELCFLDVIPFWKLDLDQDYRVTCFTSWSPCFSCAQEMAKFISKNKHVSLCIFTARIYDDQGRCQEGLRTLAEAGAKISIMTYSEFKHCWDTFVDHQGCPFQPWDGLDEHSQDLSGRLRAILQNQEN
Sphingosine 1-phosphate receptor 2, sequence (O95136 whole entry): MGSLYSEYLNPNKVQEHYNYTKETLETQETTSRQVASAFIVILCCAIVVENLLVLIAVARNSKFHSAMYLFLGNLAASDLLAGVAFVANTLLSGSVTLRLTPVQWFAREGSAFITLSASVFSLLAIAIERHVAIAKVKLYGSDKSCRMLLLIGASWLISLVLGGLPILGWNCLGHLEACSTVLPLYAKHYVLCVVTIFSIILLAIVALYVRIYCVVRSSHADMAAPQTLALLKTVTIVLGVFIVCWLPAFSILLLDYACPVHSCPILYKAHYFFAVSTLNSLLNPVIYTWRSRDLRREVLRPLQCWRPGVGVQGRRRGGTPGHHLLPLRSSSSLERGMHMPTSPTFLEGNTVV

## CC/N=C1/S/C(=C\c2cc(C)n(-c3ccccc3)c2C)C(=O)N1CC
[1]
  EC50: > 25 µM (inactive)
[2]
  EC50: 0.237 µM (active)
[3]
  EC50: 0.0683 µM (active)
[4]
  EC50: > 25 µM (inactive)

## C[C@@H]1CN([C@@H](C)CO)C(=O)c2cccc(NC(=O)Nc3cccc4ccccc34)c2O[C@H]1CN(C)S(=O)(=O)c1ccc2c(c1)OCO2
INS1 [5]
  AC50: 49.4 µM (active)
[6]
  AC50: > 195 µM (inactive)
INS1 [7]
  AC50: 29.8 µM (active)

## CCSc1nnc(NC(=O)c2ccc3ccccc3n2)s1
[8]
  IC50: 6.86 µM (active)
Orexin receptor type 2 [9]
  IC50: > 88.8 µM (inactive)
Streptococcus
  EC50: 6.46 µM (active)
Orexin receptor type 2 [10]
  IC50: > 50 µM (inactive)
[11]
  IC50: 2.67 µM (active)
CHO-K1
  IC50: > 66.2 µM (inactive)
[12]
  EC50: 2.08 µM (active)
[13]
  IC50: > 49.7 µM (inactive)

## CCc1nnc(NC(=O)Cc2c(F)cccc2Cl)s1
[14]
  IC50: > 99 µM (inactive)
[15]
  IC50: > 99 µM (inactive)

Reference: ChEMBL document CHEMBL1201862, “PubChem BioAssay data set” (2004)
